In US20210300913A1, “DEUTERATED DERIVATIVES OF LANIFIBRANOR” (lNVENTlVA, priority 2018, published 2021):

Assays:
Format in all cases: cell-based
[1] = biological target: T1, human receptor PPARα-Gal4 (Homo sapiens, UniProt Q07869); experiment: PPAR-Gal4 transactivation test in transfected Cos-7 cells (luciferase reporter), PPARα; settings: for EC50: Cos-7 cells, overnight incubation; for Human receptor PPARα Top: induction as percentage of reference fenofibric acid at 10^-5 M (=100%)
T1 sequence (Q07869 200-468 limits assumed): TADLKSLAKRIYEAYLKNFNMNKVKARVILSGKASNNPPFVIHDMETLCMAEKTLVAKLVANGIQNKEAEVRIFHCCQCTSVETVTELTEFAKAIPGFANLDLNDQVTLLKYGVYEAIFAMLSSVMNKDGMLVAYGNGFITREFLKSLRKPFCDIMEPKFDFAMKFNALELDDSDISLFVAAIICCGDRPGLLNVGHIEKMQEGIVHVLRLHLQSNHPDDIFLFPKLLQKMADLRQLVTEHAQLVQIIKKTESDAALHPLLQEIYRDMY
Description: (§1) A transactivation test was used as the primary screening test. Cos-7 cells were transfected with a plasmid expressing a chimera of a murine or human receptor PPAR-Gal4 (receptor PPARα-Gal4 or PPARδ-Gal4 or PPARγ-Gal4) and of a reporter plasmid 5Gal4pGL3 TK Luc. The transfections were carried out using a chemical agent (Jet PEI). Transfected cells were distributed into 384 well plates and allowed to stand for 24 hours. At 24 hours the culture medium was changed. The products to be tested were added (final concentration between 10^−4 and 3.10^−10 M) to the culture medium. After overnight incubation, luciferase expression was measured after addition of “SteadyGlo” according to the manufacturer's instructions (Promega).
(§2) Fenofibric acid at 10^−5 M (PPARα agonist), GW501516 at 10^−8 M (PPARδ agonist) and rosiglitazone at 10^−6 M (PPARγ agonist) were used as references.
(§3) The results are expressed as the induction rate (number of times) compared to the basal level as a percentage of activity of the adequate reference (reference=100%). Effect-concentration curves and EC50 were calculated using Assay Explorer (MDL) software.

[2] = biological target: T2, human receptor PPARδ-Gal4 (Homo sapiens, UniProt Q03181); experiment: PPAR-Gal4 transactivation test in transfected Cos-7 cells (luciferase reporter), PPARδ; settings: for EC50: Cos-7 cells, overnight incubation; for Human receptor PPARδ Top: induction as percentage of reference GW501516 at 10^-8 M (=100%)
T2 sequence (Q03181 171-441 limits assumed): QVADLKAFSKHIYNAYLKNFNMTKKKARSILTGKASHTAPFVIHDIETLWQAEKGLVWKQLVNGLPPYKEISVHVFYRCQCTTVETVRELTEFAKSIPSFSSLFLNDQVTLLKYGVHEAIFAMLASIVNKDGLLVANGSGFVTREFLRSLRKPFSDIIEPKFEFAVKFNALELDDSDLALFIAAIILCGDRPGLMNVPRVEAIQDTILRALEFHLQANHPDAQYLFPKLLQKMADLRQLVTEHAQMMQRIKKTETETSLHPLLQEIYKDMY
Description: as §1, §2, §3

[3] = biological target: T3, human receptor PPARγ-Gal4 (Homo sapiens, UniProt P37231); experiment: PPAR-Gal4 transactivation test in transfected Cos-7 cells (luciferase reporter), PPARγ; settings: for EC50: Cos-7 cells, overnight incubation; for Human receptor PPARγ Top: induction as percentage of reference rosiglitazone at 10^-6 M (=100%)
T3 sequence (P37231 238-505 limits assumed): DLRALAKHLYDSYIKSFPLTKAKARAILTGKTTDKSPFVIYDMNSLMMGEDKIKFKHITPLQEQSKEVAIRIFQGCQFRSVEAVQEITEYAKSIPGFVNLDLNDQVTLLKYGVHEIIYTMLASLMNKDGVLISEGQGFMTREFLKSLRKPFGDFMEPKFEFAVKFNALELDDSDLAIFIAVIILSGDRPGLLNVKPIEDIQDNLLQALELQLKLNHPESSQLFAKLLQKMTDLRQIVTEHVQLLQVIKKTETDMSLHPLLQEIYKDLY
Description: as §1, §2, §3

SMILES | EC50 [1] [nM] | Human receptor PPARα Top [1] [%] | EC50 [2] [nM] | Human receptor PPARδ Top [2] [%] | EC50 [3] [nM] | Human receptor PPARγ Top [3] [%]
[2H]C([2H])(C(=O)O)C([2H])([2H])C([2H])([2H])c1cc2cc(Cl)ccc2n1S(=O)(=O)c1ccc2ncsc2c1 [Example 2, 4-[1-(1,3-Benzothiazol-6-ylsulfonyl)-5-chloro-indol-2-yl]-2,2,3,3,4,4-hexadeuteriobutanoic acid] | 2280 | 62 | 1180 | 80 | 136 | 50
[2H]c1nc2ccc(S(=O)(=O)n3c(CCCC(=O)O)cc4cc(Cl)ccc43)cc2s1 [Example 1] | – | 67 | – | 80 | – | 53
O=C(O)CCCc1cc2cc(Cl)ccc2n1S(=O)(=O)c1ccc2ncsc2c1 [Example 1] | 2320 | – | 952 | – | 85 | –
